Measurements published in ChEMBL document CHEMBL5584343, “Cerastecin Inhibition of the Lipooligosaccharide Transporter MsbA to Combat Acinetobacter baumannii: From Screening Impurity to In Vivo Efficacy” (J Med Chem, 2024).
Values after ≈ are worked out from the molar mass of the structure shown.

Tests used:
[1] = tested on: Acinetobacter baumannii; assay: Antibacterial activity against wild type Acinetobacter baumannii; assay type: functional
[2] = tested on: Acinetobacter baumannii; assay: Antibacterial activity against Acinetobacter baumannii clinic isolates; assay type: functional
[3] = tested on: Acinetobacter baumannii; assay: Antibacterial activity against Acinetobacter baumannii ATCC19606 assessed as bacterial growth inhibition incubated for 18 to 20 hrs by microbroth dilution method; assay type: functional; conditions: time 18-20 hrs
[4] = (§1) Cytotoxicity against GFP fused human MT4 cells cultured under serum free condition for 24 hrs by CellTiter-Glo assay; assay type: toxicity, cell-based; conditions: GFP fused MT4 cells
[5] = Inhibition of wildtype Acinetobacter baumannii MsbA preincubated for 30 mins followed by ATP addition and measured after 1 hrs by Transcreener ADP2 F1 assay
[6] = tested on: Acinetobacter baumannii; assay: Antibacterial activity against Acinetobacter baumannii ATCC19606 incubated for 18 to 20 hrs in presence of 1% of human serum by microbroth dilution method; assay type: functional; conditions: time 18-20 hrs
[7] = Plasma protein binding in C57BL/6 mouse at 1000 to 100000 ng/ml by equilibrium dialysis based LC-MS/MS analysis; assay type: ADME, cell-free; conditions: dose 1000-100000 ng/ml, read-out: PPB (converted)
[8] = tested on: Acinetobacter baumannii; assay: Selectivity ratio of MIC95 for antibacterial activity against Acinetobacter baumannii ATCC19606 in the presence of 1% human serum to MIC95 for antibacterial activity against Acinetobacter baumannii ATCC19606; assay type: functional
[9] = tested on: Acinetobacter baumannii; assay: Antibacterial activity against Acinetobacter baumannii CLB21655 infected in female DBA mouse blood stream infection model assessed as reduction in bacterial burden in spleen at 200 mg/kg, sc pre-infected with bacteria for 0.5 hrs followed by once daily compound administration and measured after 8 hrs (reference value: 5.85 log10CFU/g); assay type: functional
[10] = Lipophilicity, logD of compound at pH 7 by HPLC analysis; assay type: physicochemical; conditions: buffer
[11] = tested on: Acinetobacter baumannii; assay: Antibacterial activity against Acinetobacter baumannii CLB21655 infected in female DBA mouse lung infection model assessed as fold change in colony forming units in lung at 160 mg/kg, sc pre-infected with bacteria for 2 hrs followed by compound administration and measured after 24 hrs in presence of ceftazidime relative to control; assay type: functional
[12] = tested on: Acinetobacter baumannii; assay: Antibacterial activity against Acinetobacter baumannii CLB21655 infected in female DBA mouse lung infection model assessed as reduction in bacterial burden in lung at 160 mg/kg, sc pre-infected with bacteria for 2 hrs followed by compound administration and measured after 24 hrs in presence of ceftazidime (reference value: 9.7 log10CFU/g); assay type: functional
[13] = tested on: MT4; assay: as §1; assay type: toxicity, cell-based; conditions: mt4, 24 h, time 24 hrs
[14] = tested on: Acinetobacter baumannii; assay: Antibacterial activity against Acinetobacter baumannii CLB21655 infected in female DBA mouse blood stream infection model assessed as fold change in colony forming units in spleen at 100 mg/kg, sc pre-infected with bacteria for 0.5 hrs followed by once daily compound administration and measured after 8 hrs relative to control; assay type: functional
[15] = tested on: Acinetobacter baumannii; assay: Antibacterial activity against Acinetobacter baumannii CLB21655 infected in female DBA mouse blood stream infection model assessed as fold change in colony forming units in spleen at 200 mg/kg, sc pre-infected with bacteria for 0.5 hrs followed by once daily compound administration and measured after 8 hrs relative to control; assay type: functional
[16] = tested on: Acinetobacter baumannii; assay: Antibacterial activity against Acinetobacter baumannii CLB21655 infected in female DBA mouse blood stream infection model assessed as fold change in colony forming units in spleen at 300 mg/kg, sc pre-infected with bacteria for 0.5 hrs followed by once daily compound administration and measured after 8 hrs relative to control; assay type: functional
[17] = tested on: Acinetobacter baumannii; assay: Antibacterial activity against Acinetobacter baumannii CLB21655 infected in female DBA mouse blood stream infection model assessed as fold change in colony forming units in spleen at 10 mg/kg, sc pre-infected with bacteria for 0.5 hrs followed by thrice daily compound administration and measured after 8 hrs relative to control; assay type: functional
[18] = tested on: Acinetobacter baumannii; assay: Antibacterial activity against Acinetobacter baumannii CLB21655 infected in female DBA mouse lung infection model assessed as fold change in colony forming units in lung at 300 mg/kg, sc pre-infected with bacteria for 2 hrs followed by thrice daily compound administration with 3 hrs interval and measured after 24 hrs relative to control; assay type: functional
[19] = tested on: Acinetobacter baumannii; assay: Antibacterial activity against Acinetobacter baumannii CLB21655 infected in female DBA mouse lung infection model assessed as fold change in colony forming units in lung at 300 mg/kg, sc pre-infected with bacteria for 2 hrs followed by once daily compound administration and measured after 24 hrs relative to control; assay type: functional
[20] = tested on: Acinetobacter baumannii; assay: Antibacterial activity against Acinetobacter baumannii ATCC19606 incubated for 18 to 20 hrs in presence of 50% mouse serum by microbroth dilution method; assay type: functional; conditions: time 18-20 hrs
[21] = tested on: Acinetobacter baumannii; assay: Antibacterial activity against Acinetobacter baumannii CLB21655 infected in female DBA mouse blood stream infection model assessed as reduction in bacterial burden in spleen at 100 mg/kg, sc pre-infected with bacteria for 0.5 hrs followed by once daily compound administration and measured after 8 hrs (reference value: 6.5 log10CFU/g); assay type: functional
[22] = tested on: Acinetobacter baumannii; assay: Antibacterial activity against Acinetobacter baumannii CLB21655 infected in female DBA mouse blood stream infection model assessed as reduction in bacterial burden in spleen at 200 mg/kg, sc pre-infected with bacteria for 0.5 hrs followed by once daily compound administration and measured after 8 hrs (reference value: 6.5 log10CFU/g); assay type: functional
[23] = tested on: Acinetobacter baumannii; assay: Antibacterial activity against Acinetobacter baumannii CLB21655 infected in female DBA mouse blood stream infection model assessed as reduction in bacterial burden in spleen at 300 mg/kg, sc pre-infected with bacteria for 0.5 hrs followed by once daily compound administration and measured after 8 hrs (reference value: 6.5 log10CFU/g); assay type: functional
[24] = tested on: Acinetobacter baumannii; assay: Antibacterial activity against Acinetobacter baumannii CLB21655 infected in female DBA mouse blood stream infection model assessed as reduction in bacterial burden in spleen at 300 mg/kg, sc pre-infected with bacteria for 0.5 hrs followed by thrice daily compound administration and measured after 8 hrs (reference value: 6.3 log10CFU/g); assay type: functional
[25] = tested on: Acinetobacter baumannii; assay: Antibacterial activity against Acinetobacter baumannii CLB21655 infected in female DBA mouse lung infection model assessed as reduction in bacterial burden in lung at 300 mg/kg, sc pre-infected with bacteria for 2 hrs followed by thrice daily compound administration with 3 hrs interval and measured after 24 hrs (reference value: 9.7 log10CFU/g); assay type: functional
[26] = tested on: Acinetobacter baumannii; assay: Antibacterial activity against Acinetobacter baumannii CLB21655 infected in female DBA mouse lung infection model assessed as reduction in bacterial burden in lung at 300 mg/kg, sc pre-infected with bacteria for 2 hrs followed by once daily compound administration and measured after 24 hrs (reference value: 9.7 log10CFU/g); assay type: functional
[27] = tested on: Acinetobacter baumannii; assay: Antibacterial activity against Acinetobacter baumannii CLB21655 infected in female DBA mouse lung infection model assessed as fold change in colony forming units in lung at 640 mg/kg, sc pre-infected with bacteria for 2 hrs followed by compound administration and measured after 24 hrs in presence of avibactam relative to control; assay type: functional
[28] = tested on: Acinetobacter baumannii; assay: Antibacterial activity against Acinetobacter baumannii CLB21655 infected in female DBA mouse lung infection model assessed as reduction in bacterial burden in lung at 640 mg/kg, sc pre-infected with bacteria for 2 hrs followed by compound administration and measured after 24 hrs in presence of avibactam (reference value: 9.7 log10CFU/g); assay type: functional
[29] = tested on: Acinetobacter baumannii; assay: Antibacterial activity against Acinetobacter baumannii CLB21655 infected in female DBA mouse blood stream infection model assessed as reduction in bacterial burden in spleen at 10 mg/kg, sc pre-infected with bacteria for 0.5 hrs followed by once daily compound administration and measured after 8 hrs (reference value: 5.85 log10CFU/g); assay type: functional
[30] = tested on: Acinetobacter baumannii; assay: Antibacterial activity against Acinetobacter baumannii CLB21655 infected in female DBA mouse blood stream infection model assessed as fold change in colony forming units in spleen at 10 mg/kg, sc pre-infected with bacteria for 0.5 hrs followed by once daily compound administration and measured after 8 hrs relative to control; assay type: functional
[31] = tested on: Acinetobacter baumannii; assay: Antibacterial activity against Acinetobacter baumannii CLB21655 infected in female DBA mouse blood stream infection model assessed as reduction in bacterial burden in spleen at 10 mg/kg, sc pre-infected with bacteria for 0.5 hrs followed by thrice daily compound administration and measured after 8 hrs (reference value: 6.3 log10CFU/g); assay type: functional
[32] = tested on: Acinetobacter baumannii; assay: Antibacterial activity against Acinetobacter baumannii CLB21655 infected in female DBA mouse lung infection model assessed as fold change in colony forming units in lung at 10 mg/kg, sc pre-infected with bacteria for 2 hrs followed by compound administration and measured after 24 hrs relative to control; assay type: functional
[33] = tested on: Acinetobacter baumannii; assay: Antibacterial activity against Acinetobacter baumannii CLB21655 infected in female DBA mouse lung infection model assessed as reduction in bacterial burden in lung at 10 mg/kg, sc pre-infected with bacteria for 2 hrs followed by compound administration and measured after 24 hrs (reference value: 6.3 log10CFU/g); assay type: functional
[34] = tested on: Acinetobacter baumannii; assay: Antibacterial activity against Acinetobacter baumannii ATCC 19606 assessed as bacterial growth inhibition incubated overnight by spectrophotometric analysis; assay type: functional
[35] = tested on: Acinetobacter baumannii; assay: Antibacterial activity against Acinetobacter baumannii ATCC19606 incubated for 18 to 20 hrs in presence of 10% human serum by microbroth dilution method; assay type: functional; conditions: time 18-20 hrs
[36] = tested on: Acinetobacter baumannii; assay: Selectivity ratio of MIC95 for antibacterial activity against Acinetobacter baumannii ATCC19606 in the presence of 10% human serum to MIC95 for antibacterial activity against Acinetobacter baumannii ATCC19606; assay type: functional
[37] = AUC (0 to infinity) in male C57BL/6 mouse at 300 mg/kg, sc measured after 24 hrs by LC-MS/MS analysis; assay type: ADME, organism-based; conditions: in vivo
[38] = Cmax in male C57BL/6 mouse at 300 mg/kg, sc measured after 24 hrs by LC-MS/MS analysis; assay type: ADME, organism-based; conditions: in vivo
[39] = Plasma protein binding in C57BL/6 mouse assessed as free fraction at 1000 to 100000 ng/ml by equilibrium dialysis based LC-MS/MS analysis; assay type: ADME, cell-free; conditions: dose 1000-100000 ng/ml

CN1C(=O)[C@H](CCCCN)NC(=O)[C@H](CCCN)NCc2cccnc2Sc2cccc(-c3ccc(C(=O)O)cc3)c2CNC(=O)[C@@H]1Cc1c[nH]c2ccccc12 [ZOSURABALPIN]
MIC [1]: 0.3 µM (≈ 0.237 µg/mL) | MIC [2]: 0.12 µg/mL (≈ 0.152 µM)

CCCCc1ccc(S(=O)(=O)Nc2ccc(NC(=O)CCC(=O)Nc3ccc(NS(=O)(=O)c4ccc(CCCC)cc4)c(C(=O)O)c3)cc2C(=O)O)cc1
MIC95 [3]: 0.057 µM (≈ 0.0444 µg/mL) | EC50 at 24 h [4]: > 42000 nM | EC50 [5]: 49 nM | MIC95 [6]: 11.5 µM | fraction unbound [7]: < 0.001 | Selectivity ratio [8]: 202 | Activity [9]: 6.04 log10CFU/g | logD [10]: 2.1

NC(=O)[C@@H]1CC[C@@H]2CN1C(=O)N2OS(=O)(=O)O [AVIBACTAM]
fold change (FC) [11]: 2.1 | Activity [12]: 7.6 log10CFU/g

O=C(CCCOc1ccc(NS(=O)(=O)CCc2ccc(F)cc2)c(C(=O)O)c1)Nc1ccc(NS(=O)(=O)CCc2ccc(F)cc2)c(C(=O)O)c1
MIC95 [3]: 3.12 µM (≈ 2.33 µg/mL) | Activity [13]: Non-Toxic | EC50 [5]: 1140 nM | MIC95 [6]: 25 µM | Selectivity ratio [8]: 8

O=C(CCCOc1ccc(NS(=O)(=O)c2cnn(-c3ccc(F)cc3)c2)c(C(=O)O)c1)Nc1ccc(NS(=O)(=O)c2cnn(-c3ccc(F)cc3)c2)c(C(=O)O)c1
MIC95 [3]: 0.277 µM (≈ 0.228 µg/mL) | EC50 at 24 h [4]: > 42000 nM | EC50 [5]: 50 nM | MIC95 [6]: 2.03 µM | fraction unbound [7]: 0.004 | Selectivity ratio [8]: 7.3 | fold change (FC) [14]: 0.63 | fold change (FC) [15]: 0 | fold change (FC) [16]: 0.36 | fold change (FC) [17]: 1.9 | fold change (FC) [18]: 1.4 | fold change (FC) [19]: 0.9 | MIC95 [20]: 50 µM | Activity [21]: 5.9 log10CFU/g | Activity [22]: 6.5 log10CFU/g | Activity [23]: 6.2 log10CFU/g | Activity [24]: 4.4 log10CFU/g | Activity [25]: 8.3 log10CFU/g | Activity [26]: 8.8 log10CFU/g

CC(C)(O/N=C(\C(=O)N[C@@H]1C(=O)N2C(C(=O)[O-])=C(C[n+]3ccccc3)CS[C@H]12)c1csc(N)n1)C(=O)O [CEFTAZIDIME]
fold change (FC) [27]: 2.1 | Activity [28]: 7.6 log10CFU/g

CN(C)c1cc(NC(=O)CNC(C)(C)C)c(O)c2c1C[C@H]1C[C@H]3[C@H](N(C)C)C(O)=C(C(N)=O)C(=O)[C@@]3(O)C(O)=C1C2=O [TIGECYCLINE]
Activity [29]: 2.85 log10CFU/g | fold change (FC) [30]: 3 | fold change (FC) [17]: 2.8 | Activity [31]: 3.5 log10CFU/g | fold change (FC) [32]: 2.8 | Activity [33]: 3.5 log10CFU/g

CCCCc1ccc(S(=O)(=O)Nc2ccc(NC(=O)N3CCOCC3)cc2C(=O)O)cc1
MIC [34]: ≤ 12.5 µM

O=C(O)c1cc(CN2CC(Oc3ccc(NS(=O)(=O)c4ccc(-c5ccc(F)cc5)s4)c(C(=O)O)c3)C2)ccc1NS(=O)(=O)c1cnn(-c2ccc(F)cc2)c1
MIC95 [3]: 0.024 µM (≈ 0.0197 µg/mL) | EC50 at 24 h [4]: > 42000 nM | EC50 [5]: 7.3 nM | MIC95 [35]: 6.25 µM | Selectivity ratio [36]: 260 | AUC [37]: 7970 µM·h | Cmax [38]: 502 µM | logD [10]: 1.8 | Fu [39]: 0.6%
